Results reported in patent publication US12391648B2, “Pyridyloxy thioester derivative and preparation method therefor, herbicidal composition, and application” (Qingdao Kingagroot Chemical Compound Co., Ltd., priority 2018, dated 2025).

Assays:
Test in all cases: Post-emergence test experiment (Table 3, 1000 g/ha)
Type in all cases: in vivo
Conditions in all cases: post-emergence spray, after 3 weeks, fresh weight inhibition
Galium spurium = system: Galium spurium
Method in brief: (§1)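 Activity graded levels 0-5 by fresh-weight inhibition (level 5 above 85%, level 0 below 5%), assessed 3 weeks after treatment. Plants grown in greenhouse pots were sprayed post-emergence at 2-3 leaves using acetone/tween-80 solutions with methyl oleate synergist (1.5 L/ha).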

Setaria viridis = system: Setaria viridis
Method in brief: as §1

Leptochloa chinensis = system: Leptochloa chinensis
Method in brief: as §1

Abutilon theophrasti = system: Abutilon theophrasti
Method in brief: as §1

Digitaria sanguinalis = system: Digitaria sanguinalis
Method in brief: as §1

Monochoria vaginalis = system: Monochoria vaginalis
Method in brief: as §1

| SMILES | Activity level (growth inhibition rate) Galium spurium (Galium spurium) | Activity level (growth inhibition rate) Setaria viridis (Setaria viridis) | Activity level (growth inhibition rate) Leptochloa chinensis (Leptochloa chinensis) | Activity level (growth inhibition rate) Abutilon theophrasti (Abutilon theophrasti) | Activity level (growth inhibition rate) Digitaria sanguinalis (Digitaria sanguinalis) | Activity level (growth inhibition rate) Monochoria Vaginalis (Monochoria vaginalis) |
| --- | --- | --- | --- | --- | --- | --- |
| CSC(=O)C(C)Oc1nc(F)c(Cl)c(NC(C)=O)c1Cl (stereo not drawn) [Compound 129] | 5 (Level 5: the growth inhibition rate is greater than 85%) | 5 (Level 5: the growth inhibition rate is greater than 85%) | 5 (Level 5: the growth inhibition rate is greater than 85%) | 5 (Level 5: the growth inhibition rate is greater than 85%) | 5 (Level 5: the growth inhibition rate is greater than 85%) | 5 (Level 5: the growth inhibition rate is greater than 85%) |
| CSC(=O)C(C)Oc1nc(F)c(Cl)c(NC(=O)c2ccccc2)c1Cl (stereo not drawn) [Compound 131] | 5 (Level 5: the growth inhibition rate is greater than 85%) | 5 (Level 5: the growth inhibition rate is greater than 85%) | 5 (Level 5: the growth inhibition rate is greater than 85%) | 5 (Level 5: the growth inhibition rate is greater than 85%) | 5 (Level 5: the growth inhibition rate is greater than 85%) | 5 (Level 5: the growth inhibition rate is greater than 85%) |
| CSC(=O)C(C)Oc1nc(F)c(Cl)c(NCc2ccccc2)c1Cl (stereo not drawn) [Compound 132] | 5 (Level 5: the growth inhibition rate is greater than 85%) | 5 (Level 5: the growth inhibition rate is greater than 85%) | 5 (Level 5: the growth inhibition rate is greater than 85%) | 5 (Level 5: the growth inhibition rate is greater than 85%) | 5 (Level 5: the growth inhibition rate is greater than 85%) | 5 (Level 5: the growth inhibition rate is greater than 85%) |
| CC(C)CSC(=O)C(C)Oc1nc(F)c(Cl)c(N)c1Cl (stereo not drawn) [Compound 133] | 5 (Level 5: the growth inhibition rate is greater than 85%) | 5 (Level 5: the growth inhibition rate is greater than 85%) | 5 (Level 5: the growth inhibition rate is greater than 85%) | 5 (Level 5: the growth inhibition rate is greater than 85%) | 5 (Level 5: the growth inhibition rate is greater than 85%) | 5 (Level 5: the growth inhibition rate is greater than 85%) |
| CCCCCCC(C)SC(=O)C(C)Oc1nc(F)c(Cl)c(N)c1Cl (stereo not drawn) [Compound 135] | 5 (Level 5: the growth inhibition rate is greater than 85%) | 5 (Level 5: the growth inhibition rate is greater than 85%) | 5 (Level 5: the growth inhibition rate is greater than 85%) | 5 (Level 5: the growth inhibition rate is greater than 85%) | 5 (Level 5: the growth inhibition rate is greater than 85%) | 5 (Level 5: the growth inhibition rate is greater than 85%) |
| CC(C)CCCCCSC(=O)C(C)Oc1nc(F)c(Cl)c(N)c1Cl (stereo not drawn) [Compound 136] | 5 (Level 5: the growth inhibition rate is greater than 85%) | 5 (Level 5: the growth inhibition rate is greater than 85%) | 5 (Level 5: the growth inhibition rate is greater than 85%) | 5 (Level 5: the growth inhibition rate is greater than 85%) | 5 (Level 5: the growth inhibition rate is greater than 85%) | 5 (Level 5: the growth inhibition rate is greater than 85%) |
| CCCCCCCSC(=O)C(C)Oc1nc(F)c(Cl)c(N)c1Cl (stereo not drawn) [Compound 139] | 5 (Level 5: the growth inhibition rate is greater than 85%) | 5 (Level 5: the growth inhibition rate is greater than 85%) | 5 (Level 5: the growth inhibition rate is greater than 85%) | 5 (Level 5: the growth inhibition rate is greater than 85%) | 5 (Level 5: the growth inhibition rate is greater than 85%) | 5 (Level 5: the growth inhibition rate is greater than 85%) |
| CCCCCCCCCSC(=O)C(C)Oc1nc(F)c(Cl)c(N)c1Cl (stereo not drawn) [Compound 140] | 5 (Level 5: the growth inhibition rate is greater than 85%) | 5 (Level 5: the growth inhibition rate is greater than 85%) | 5 (Level 5: the growth inhibition rate is greater than 85%) | 5 (Level 5: the growth inhibition rate is greater than 85%) | 5 (Level 5: the growth inhibition rate is greater than 85%) | 5 (Level 5: the growth inhibition rate is greater than 85%) |
| CCCCCCCCCCSC(=O)C(C)Oc1nc(F)c(Cl)c(N)c1Cl (stereo not drawn) [Compound 141] | 5 (Level 5: the growth inhibition rate is greater than 85%) | 5 (Level 5: the growth inhibition rate is greater than 85%) | 5 (Level 5: the growth inhibition rate is greater than 85%) | 5 (Level 5: the growth inhibition rate is greater than 85%) | 5 (Level 5: the growth inhibition rate is greater than 85%) | 5 (Level 5: the growth inhibition rate is greater than 85%) |
| CCCCCCCCCCCSC(=O)C(C)Oc1nc(F)c(Cl)c(N)c1Cl (stereo not drawn) [Compound 142] | 5 (Level 5: the growth inhibition rate is greater than 85%) | 5 (Level 5: the growth inhibition rate is greater than 85%) | 5 (Level 5: the growth inhibition rate is greater than 85%) | 5 (Level 5: the growth inhibition rate is greater than 85%) | 5 (Level 5: the growth inhibition rate is greater than 85%) | 5 (Level 5: the growth inhibition rate is greater than 85%) |
| CCCCCCCCCCCCSC(=O)C(C)Oc1nc(F)c(Cl)c(N)c1Cl (stereo not drawn) [Compound 143] | 5 (Level 5: the growth inhibition rate is greater than 85%) | 5 (Level 5: the growth inhibition rate is greater than 85%) | 5 (Level 5: the growth inhibition rate is greater than 85%) | 5 (Level 5: the growth inhibition rate is greater than 85%) | 5 (Level 5: the growth inhibition rate is greater than 85%) | 5 (Level 5: the growth inhibition rate is greater than 85%) |
| CCCC(C)SC(=O)C(C)Oc1nc(F)c(Cl)c(N)c1Cl (stereo not drawn) [Compound 144] | 5 (Level 5: the growth inhibition rate is greater than 85%) | 5 (Level 5: the growth inhibition rate is greater than 85%) | 5 (Level 5: the growth inhibition rate is greater than 85%) | 5 (Level 5: the growth inhibition rate is greater than 85%) | 5 (Level 5: the growth inhibition rate is greater than 85%) | 5 (Level 5: the growth inhibition rate is greater than 85%) |
| CCC(C)CSC(=O)C(C)Oc1nc(F)c(Cl)c(N)c1Cl (stereo not drawn) [Compound 145] | 5 (Level 5: the growth inhibition rate is greater than 85%) | 5 (Level 5: the growth inhibition rate is greater than 85%) | 5 (Level 5: the growth inhibition rate is greater than 85%) | 5 (Level 5: the growth inhibition rate is greater than 85%) | 5 (Level 5: the growth inhibition rate is greater than 85%) | 5 (Level 5: the growth inhibition rate is greater than 85%) |
| CC(C)CCSC(=O)C(C)Oc1nc(F)c(Cl)c(N)c1Cl (stereo not drawn) [Compound 146] | 5 (Level 5: the growth inhibition rate is greater than 85%) | 5 (Level 5: the growth inhibition rate is greater than 85%) | 5 (Level 5: the growth inhibition rate is greater than 85%) | 5 (Level 5: the growth inhibition rate is greater than 85%) | 5 (Level 5: the growth inhibition rate is greater than 85%) | 5 (Level 5: the growth inhibition rate is greater than 85%) |
